In patent publication EP0934745B1, “Use of androsterone derivatives for inhibiting DNA binding of ap-1 and airway smooth muscle proliferation” (CHARLOTTE-MECKLENBURG HOSPITAL doing business as Carolinas …, priority 1998, dated 1999):

Tested on: p21^ras
Experiment: Immunoblot of p21ras in membranes of cultured airway smooth muscle cells
Format: cell-based, rat
Conditions: 10% FBS + 10 µM, 24 hours (Figure 6B)
Procedure: To determine if 16α-bromoepiandrosterone reduced cellular proliferation by interfering with mevalonic acid synthesis, cells were stimulated with FBS and grown in the presence or absence of 16α-BrEA, with or without addition of 6 mM DL-mevalonic acid lactone to growth medium. After 36 hours growth was measured by MTT reduction. To evaluate whether isoprenylation and membrane localization of Ras was impaired, confluent cells on 75-cm^2 Petri dishes were growth arrested for 24 hours in 0.5% FBS and DMEM with and without 16α-BrEA or DMSO vehicle. Some dishes were then stimulated 30 minutes with 10% FBS in DMEM. Cells were lysed, membranes were isolated and immunoblotting was performed as described below to determine if treatment with DHEA and 16α-BrEA depleted p21^ras.
To determine if DHEA or its analogs induced programmed cell death, confluent cultures in 6 well plastic plates were treated with 50 or 250 µM DHEA, 10 or 50 µM 16α-BrEA, or vehicle (25 µl DMSO). After 2 hours cells were washed twice with DPBS and scraped on ice into 1.5 ml microfuge tubes and centrifuged 250 g for 5 minutes at 4°C. […] The linear increase in absorbance at 340 nm was monitored at 25°C for 300 seconds. Activity was expressed as units/mg protein, where 1.0 unit will oxidase 1.0 µmole of G6P to 6-phospho-D-gluconate per min in the presence of NADP. Protein was measured using the BCA protein assay (Rockford, IL). […]

C[C@]12CC[C@H](O)C[C@@H]1CC[C@@H]1[C@@H]2CC[C@]2(C)C(=O)[C@H](Br)C[C@@H]12 [16α-BrEA, 16α-bromoepiandrosterone]
p21^ras in membranes of cultured airway smooth muscle cells: does not deplete p21^ras
